Source: ChEMBL document CHEMBL3351389, “Identification of novel inhibitors of phospho-MurNAc-pentapeptide translocase MraY from library screening: Isoquinoline alkaloid michellamine B and xanthene dye phloxine B” (Bioorg Med Chem, 2014)
Converted amounts (≈) assume the structure as drawn. The source made the active and inactive calls. No cut-off for these calls is given here.

What was measured:
[1] = Inhibition of MraY in Pseudomonas aeruginosa membranes by continuous fluorescence assay; format: cell membranes
[2] = target: T1, Phospho-N-acetylmuramoyl-pentapeptide-transferase (Escherichia coli) (UniProt E2QF15); assay: Inhibition of recombinant MraY overexpressed in Escherichia coli membranes after 30 mins by radiochemical assay in presence of [14C-D-Ala]-UDPMurNAc-pentapeptide; format: cell membranes
T1 sequence (whole entry): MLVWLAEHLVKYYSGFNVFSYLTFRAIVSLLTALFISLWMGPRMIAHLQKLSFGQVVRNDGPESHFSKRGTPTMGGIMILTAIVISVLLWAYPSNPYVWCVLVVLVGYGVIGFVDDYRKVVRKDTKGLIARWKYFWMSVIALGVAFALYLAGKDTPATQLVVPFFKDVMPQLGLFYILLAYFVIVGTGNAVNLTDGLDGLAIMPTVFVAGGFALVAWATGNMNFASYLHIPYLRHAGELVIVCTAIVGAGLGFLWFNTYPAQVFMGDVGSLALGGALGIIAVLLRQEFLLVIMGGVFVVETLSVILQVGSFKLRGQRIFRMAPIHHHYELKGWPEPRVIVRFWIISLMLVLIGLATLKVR

[3] = Inhibition of MraY in Micrococcus flavus membranes by continuous fluorescence assay; format: cell membranes
[4] = Inhibition of MraY in Staphylococcus aureus membranes by continuous fluorescence assay; format: cell membranes
[5] = Inhibition of MraY in Bacillus subtilis membranes by continuous fluorescence assay; format: cell membranes
Escherichia coli [6] = assay: Inhibition of recombinant Escherichia coli MurG at 500 ug/ml after 30 mins by radiochemical assay in presence of [3H]-UDPGlcNAc
[7] = target: T2, Phospho-N-acetylmuramoyl-pentapeptide-transferase (Escherichia coli, UniProt E2QF15); assay: Inhibition of recombinant MraY overexpressed in Escherichia coli membranes by continuous fluorescence assay; format: cell membranes
T2 sequence (E2QF15 whole entry): T1 sequence (whole entry)

[8] = target: T1, Phospho-N-acetylmuramoyl-pentapeptide-transferase (Escherichia coli); assay: Inhibition of recombinant MraY overexpressed in Escherichia coli membranes at 100 uM after 30 mins by radiochemical assay in presence of [14C-D-Ala]-UDPMurNAc-pentapeptide; format: cell membranes
Bacillus subtilis = assay: Antimicrobial activity against Bacillus subtilis W23 by liquid culture microtitre plate assay; format: functional
Staphylococcus aureus = assay: Inhibition of MraY in Staphylococcus aureus membranes at 500 uM by continuous fluorescence assay; format: cell membranes
[9] = target: T1, Phospho-N-acetylmuramoyl-pentapeptide-transferase (Escherichia coli); assay: Inhibition of recombinant MraY overexpressed in Escherichia coli membranes at 500 uM after 30 mins by radiochemical assay in presence of [14C-D-Ala]-UDPMurNAc-pentapeptide; format: cell membranes
Micrococcus flavus [10] = assay: Antimicrobial activity against Micrococcus flavus at 1.95 to 125 ug/ml by liquid culture microtitre plate assay; format: functional, organism-based
Pseudomonas putida = assay: Antimicrobial activity against Pseudomonas putida ATCC 33015 at 1.95 to 125 ug/ml by liquid culture microtitre plate assay; format: functional, organism-based
Pseudomonas aeruginosa = assay: Inhibition of MraY in Pseudomonas aeruginosa membranes at 500 uM by continuous fluorescence assay; format: cell membranes
Micrococcus flavus [11] = assay: Inhibition of MraY in Micrococcus flavus membranes at 500 uM by continuous fluorescence assay; format: cell membranes
Escherichia coli [12] = assay: Antimicrobial activity against Escherichia coli DH5[alpha] at 1.95 to 125 ug/ml by liquid culture microtitre plate assay; format: functional, organism-based
[13] = target: T1, Phospho-N-acetylmuramoyl-pentapeptide-transferase (Escherichia coli); assay: Inhibition of recombinant MraY overexpressed in Escherichia coli membranes at 25 ug/ml by continuous fluorescence assay; format: cell membranes
Escherichia coli [14] = assay: Inhibition of recombinant Escherichia coli MurG at 50 ug/ml after 30 mins by radiochemical assay in presence of [3H]-UDPGlcNAc

With `O=C(O)c1c(Cl)c(Cl)c(Cl)c(Cl)c1-c1c2cc(Br)c(=O)c(Br)c-2oc2c(Br)c(O)c(Br)cc12` the IC50 [1] was 128 µM, the inhibition [2] was “Active” and the IC50 [3] was 195 µM. For the same molecule, the IC50 [4] was 254 µM, the IC50 [5] was 165 µM and the inhibition (Escherichia coli [6]) was “inactive”. The IC50 [7] was 32 µM.
For `COc1cc(C)cc2c(-c3c(O)cc(O)c4c3C[C@@H](C)N[C@@H]4C)cc(-c3cc(-c4c(O)cc(O)c5c4C[C@@H](C)N[C@@H]5C)c4cc(C)cc(OC)c4c3O)c(O)c12` [MICHELLAMINE A], the inhibition [8] was 20%, the MIC (Bacillus subtilis) was 16 µg/mL (≈ 21.1 µM) and the inhibition (Staphylococcus aureus) was 0%. For the same molecule, the inhibition [9] was 60%, the Activity (Micrococcus flavus [10]) was “inactive” and the Activity (Pseudomonas putida) was “inactive”. For the same molecule, the inhibition (Pseudomonas aeruginosa) was 38%, the IC50 [5] was 386 µM and the inhibition (Micrococcus flavus [11]) was 14%. For the same molecule, the inhibition (Escherichia coli [6]) was “inactive”, the Activity (Escherichia coli [12]) was “inactive” and the IC50 [7] was 456 µM.
With `CC(=O)N[C@H]1[C@@H](O[C@@H]2O[C@H](CC(O)[C@H]3O[C@@H](n4ccc(=O)[nH]c4=O)[C@H](O)[C@@H]3O)[C@H](O)[C@H](O)[C@H]2NC(=O)/C=C/CC(C)C)O[C@H](CO)[C@@H](N)[C@@H]1O` (stereo partly drawn) the inhibition [13] was greater than 95%.
With `O=C(O)c1ccccc1-c1c2cc(Br)c(=O)cc-2oc2cc(O)c(Br)cc12` the inhibition [2] was “inactive”.
For `O=C(O)c1ccccc1-c1c2cc(Cl)c(=O)cc-2oc2cc(O)c(Cl)cc12`, the inhibition [2] was “inactive”.
In the case of RAMOPLANIN, the inhibition (Escherichia coli [14]) is reported as greater than 80%.
